According to ChEMBL document CHEMBL1201862, “PubChem BioAssay data set” (2004):
Values belong to the compound of their own block, whether it stands above or below them. Active and inactive are the calls of the source.

Legend:
P388/ADR = test: cells; format: functional; settings: Mus musculus
Melanocortin receptor 4 = Melanocortin receptor 4 (Homo sapiens, UniProt P32245); format: functional, cell-based;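 further: Cell-based assay with luminescence read-out, confirmatory dose-response testing for agonist activity of biased ligands at MC4R; human U2OS cells with tagged receptor and beta-arrestin; potency of agonists that increase receptor coupling to beta-arrestin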
Chain of Melanocortin receptor 4 (P32245 whole entry): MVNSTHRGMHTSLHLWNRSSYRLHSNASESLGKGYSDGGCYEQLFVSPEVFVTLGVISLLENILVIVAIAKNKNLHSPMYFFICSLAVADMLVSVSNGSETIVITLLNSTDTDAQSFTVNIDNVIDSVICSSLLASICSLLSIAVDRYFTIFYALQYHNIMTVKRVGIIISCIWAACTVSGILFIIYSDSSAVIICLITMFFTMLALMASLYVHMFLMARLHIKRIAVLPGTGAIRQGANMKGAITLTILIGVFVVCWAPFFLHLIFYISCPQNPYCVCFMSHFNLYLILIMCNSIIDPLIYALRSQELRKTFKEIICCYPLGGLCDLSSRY

[1] = biological target: T1, Tyrosine-protein phosphatase non-receptor type 5 (Homo sapiens, UniProt P54829); test: STEP phosphatase inhibitors, confirmation, biochemical, fluorescence intensity, uHTS hits (AID 602372); format: functional; settings: read-out: IC50_Mean
T1 sequence (P54829 whole entry): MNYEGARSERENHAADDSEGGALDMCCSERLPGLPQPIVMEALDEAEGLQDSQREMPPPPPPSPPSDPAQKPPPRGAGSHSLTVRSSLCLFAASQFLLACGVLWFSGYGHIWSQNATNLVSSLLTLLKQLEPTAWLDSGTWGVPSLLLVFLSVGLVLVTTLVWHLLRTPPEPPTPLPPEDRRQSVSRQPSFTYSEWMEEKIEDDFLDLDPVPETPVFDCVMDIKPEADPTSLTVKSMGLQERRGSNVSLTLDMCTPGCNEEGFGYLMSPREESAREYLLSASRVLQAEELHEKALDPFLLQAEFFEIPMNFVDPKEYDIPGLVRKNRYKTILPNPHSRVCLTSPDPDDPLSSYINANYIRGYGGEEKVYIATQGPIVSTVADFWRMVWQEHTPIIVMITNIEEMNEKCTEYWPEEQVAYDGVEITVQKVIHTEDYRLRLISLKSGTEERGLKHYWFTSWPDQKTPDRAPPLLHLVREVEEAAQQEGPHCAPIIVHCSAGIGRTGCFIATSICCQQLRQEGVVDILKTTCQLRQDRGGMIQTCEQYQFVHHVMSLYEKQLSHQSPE

[2] = biological target: T2, Tyrosine-protein phosphatase non-receptor type 11 (Homo sapiens, UniProt Q06124); test: SHP2 phosphatase inhibition, dose response, selectivity assay for STEP inhibitor project, biochemical (AID 602367); format: functional; settings: read-out: IC50_Mean
T2 sequence (Q06124 whole entry): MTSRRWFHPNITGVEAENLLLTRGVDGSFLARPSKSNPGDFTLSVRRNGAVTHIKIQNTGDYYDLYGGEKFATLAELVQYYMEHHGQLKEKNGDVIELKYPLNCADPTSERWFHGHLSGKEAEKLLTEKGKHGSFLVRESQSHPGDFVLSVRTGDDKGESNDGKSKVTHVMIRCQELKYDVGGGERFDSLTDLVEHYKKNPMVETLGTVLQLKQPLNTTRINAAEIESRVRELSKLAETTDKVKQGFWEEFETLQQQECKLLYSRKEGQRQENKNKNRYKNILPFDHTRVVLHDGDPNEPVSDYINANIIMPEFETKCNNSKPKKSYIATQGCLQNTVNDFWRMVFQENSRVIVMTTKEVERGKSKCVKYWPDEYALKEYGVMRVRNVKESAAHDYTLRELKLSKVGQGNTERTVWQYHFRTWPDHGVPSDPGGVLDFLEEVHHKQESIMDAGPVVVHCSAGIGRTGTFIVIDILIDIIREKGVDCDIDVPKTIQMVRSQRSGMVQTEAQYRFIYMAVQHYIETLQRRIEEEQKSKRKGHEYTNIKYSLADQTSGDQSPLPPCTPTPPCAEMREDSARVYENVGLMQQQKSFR

[3] = biological target: Dual specificity protein phosphatase 3 (Homo sapiens, UniProt P51452); test: VHR phosphatase inhibition, dose response, selectivity assay for STEP inhibitor project, biochemical (AID 602374); format: functional; settings: read-out: IC50_Mean
Chain of Dual specificity protein phosphatase 3 (P51452 whole entry): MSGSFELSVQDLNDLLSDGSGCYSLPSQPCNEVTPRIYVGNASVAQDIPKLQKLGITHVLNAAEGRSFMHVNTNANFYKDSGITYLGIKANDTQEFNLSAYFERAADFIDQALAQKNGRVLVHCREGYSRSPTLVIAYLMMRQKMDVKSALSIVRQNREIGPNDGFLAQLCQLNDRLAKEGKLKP

[4] = biological target: Glucose-6-phosphate 1-dehydrogenase (Homo sapiens, UniProt P11413); test: human G6PD enzyme inhibitors, dose response, selectivity assay for P. falciparum G6PD inhibitor project, biochemical, fluorescence (AID 504792); format: functional
Chain of Glucose-6-phosphate 1-dehydrogenase (P11413 whole entry, the tested form may be a part): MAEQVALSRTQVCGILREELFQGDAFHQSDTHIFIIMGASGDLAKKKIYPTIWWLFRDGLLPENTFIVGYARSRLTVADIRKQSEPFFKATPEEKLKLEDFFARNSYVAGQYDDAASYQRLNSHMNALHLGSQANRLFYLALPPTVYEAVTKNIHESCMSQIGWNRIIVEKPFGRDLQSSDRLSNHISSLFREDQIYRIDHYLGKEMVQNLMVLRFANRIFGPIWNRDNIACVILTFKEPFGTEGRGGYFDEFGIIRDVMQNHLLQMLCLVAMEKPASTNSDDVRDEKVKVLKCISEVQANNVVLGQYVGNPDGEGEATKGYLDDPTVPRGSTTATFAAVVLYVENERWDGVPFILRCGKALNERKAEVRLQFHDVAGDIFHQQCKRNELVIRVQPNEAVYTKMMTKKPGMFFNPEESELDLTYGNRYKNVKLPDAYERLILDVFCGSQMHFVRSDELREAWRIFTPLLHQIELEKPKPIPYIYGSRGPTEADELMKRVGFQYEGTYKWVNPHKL

[5] = biological target: T3, Sentrin-specific protease 1 (Homo sapiens, UniProt Q9P0U3); test: Dose response confirmation of small molecule inhibitors of the catalytic domain of the SUMO protease, SENP1 in a FRET assay.; format: functional; settings: read-out: IC50_Mean
T3 sequence (Q9P0U3 whole entry): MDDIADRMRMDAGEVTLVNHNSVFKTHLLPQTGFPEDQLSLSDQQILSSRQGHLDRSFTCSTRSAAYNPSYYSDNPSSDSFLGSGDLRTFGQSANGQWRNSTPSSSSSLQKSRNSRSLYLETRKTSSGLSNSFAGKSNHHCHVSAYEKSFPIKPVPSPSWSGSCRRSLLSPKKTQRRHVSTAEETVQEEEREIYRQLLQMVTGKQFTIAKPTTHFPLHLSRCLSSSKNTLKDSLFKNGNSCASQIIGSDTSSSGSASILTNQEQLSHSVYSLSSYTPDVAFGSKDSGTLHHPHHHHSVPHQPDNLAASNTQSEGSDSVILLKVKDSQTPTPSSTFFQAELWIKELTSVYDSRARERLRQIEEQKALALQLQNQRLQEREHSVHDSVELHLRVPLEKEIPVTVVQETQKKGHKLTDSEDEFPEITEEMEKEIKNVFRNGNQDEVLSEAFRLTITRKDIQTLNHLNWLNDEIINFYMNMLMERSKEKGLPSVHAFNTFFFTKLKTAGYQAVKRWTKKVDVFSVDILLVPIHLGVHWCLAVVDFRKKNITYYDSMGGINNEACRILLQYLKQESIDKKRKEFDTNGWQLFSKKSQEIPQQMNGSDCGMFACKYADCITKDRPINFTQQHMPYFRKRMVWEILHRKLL

[6] = biological target: T4, Low molecular weight phosphotyrosine protein phosphatase (Homo sapiens, UniProt P24666); format: functional; settings: read-out: IC50_Mean;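 further: Dose-response confirmation assay measuring inhibition of LMPTP enzyme activity by fluorescence intensity read-out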
T4 sequence (P24666 whole entry): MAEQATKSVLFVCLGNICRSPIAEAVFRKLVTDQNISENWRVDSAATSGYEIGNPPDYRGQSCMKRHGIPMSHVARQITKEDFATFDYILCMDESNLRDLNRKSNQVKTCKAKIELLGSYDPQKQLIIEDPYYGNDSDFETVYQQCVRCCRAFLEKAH

[7] = biological target: T5, Zinc finger protein mex-5 (Caenorhabditis elegans, UniProt Q9XUB2); test: MEX-5/TCR-2 RNA interaction inhibitors, dose response, biochemical, C. elegans, fluorescence polarization (AID 1960)
T5 sequence (Q9XUB2 whole entry): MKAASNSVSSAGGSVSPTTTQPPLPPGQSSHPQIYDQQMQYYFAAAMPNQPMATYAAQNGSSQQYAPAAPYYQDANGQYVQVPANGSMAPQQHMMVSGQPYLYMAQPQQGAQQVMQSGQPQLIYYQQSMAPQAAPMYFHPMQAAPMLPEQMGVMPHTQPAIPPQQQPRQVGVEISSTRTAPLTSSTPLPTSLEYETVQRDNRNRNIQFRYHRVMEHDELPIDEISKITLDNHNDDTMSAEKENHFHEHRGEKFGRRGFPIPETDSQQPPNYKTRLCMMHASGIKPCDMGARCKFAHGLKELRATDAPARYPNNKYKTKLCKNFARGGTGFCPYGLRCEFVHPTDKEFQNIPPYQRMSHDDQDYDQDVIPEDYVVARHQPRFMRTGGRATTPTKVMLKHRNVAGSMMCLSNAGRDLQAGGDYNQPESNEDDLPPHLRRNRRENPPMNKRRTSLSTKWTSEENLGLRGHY

Phospholipase A2 = Phospholipase A2 (Homo sapiens, UniProt P04054); format: functional;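 further: confirmatory dose-response counterscreen on phospholipase A2, testing hits that came from an ultra-high-throughput screen for ATG4B inhibitors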
Chain of Phospholipase A2 (P04054 whole entry): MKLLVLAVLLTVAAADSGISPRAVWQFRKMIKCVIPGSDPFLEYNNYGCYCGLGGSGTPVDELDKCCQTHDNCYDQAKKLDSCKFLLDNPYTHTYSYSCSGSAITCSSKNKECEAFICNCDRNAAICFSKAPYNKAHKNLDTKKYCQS

[8] = biological target: T6, Histone-lysine N-methyltransferase NSD2 (Homo sapiens, UniProt O96028); format: biochemical
T6 sequence (O96028 whole entry): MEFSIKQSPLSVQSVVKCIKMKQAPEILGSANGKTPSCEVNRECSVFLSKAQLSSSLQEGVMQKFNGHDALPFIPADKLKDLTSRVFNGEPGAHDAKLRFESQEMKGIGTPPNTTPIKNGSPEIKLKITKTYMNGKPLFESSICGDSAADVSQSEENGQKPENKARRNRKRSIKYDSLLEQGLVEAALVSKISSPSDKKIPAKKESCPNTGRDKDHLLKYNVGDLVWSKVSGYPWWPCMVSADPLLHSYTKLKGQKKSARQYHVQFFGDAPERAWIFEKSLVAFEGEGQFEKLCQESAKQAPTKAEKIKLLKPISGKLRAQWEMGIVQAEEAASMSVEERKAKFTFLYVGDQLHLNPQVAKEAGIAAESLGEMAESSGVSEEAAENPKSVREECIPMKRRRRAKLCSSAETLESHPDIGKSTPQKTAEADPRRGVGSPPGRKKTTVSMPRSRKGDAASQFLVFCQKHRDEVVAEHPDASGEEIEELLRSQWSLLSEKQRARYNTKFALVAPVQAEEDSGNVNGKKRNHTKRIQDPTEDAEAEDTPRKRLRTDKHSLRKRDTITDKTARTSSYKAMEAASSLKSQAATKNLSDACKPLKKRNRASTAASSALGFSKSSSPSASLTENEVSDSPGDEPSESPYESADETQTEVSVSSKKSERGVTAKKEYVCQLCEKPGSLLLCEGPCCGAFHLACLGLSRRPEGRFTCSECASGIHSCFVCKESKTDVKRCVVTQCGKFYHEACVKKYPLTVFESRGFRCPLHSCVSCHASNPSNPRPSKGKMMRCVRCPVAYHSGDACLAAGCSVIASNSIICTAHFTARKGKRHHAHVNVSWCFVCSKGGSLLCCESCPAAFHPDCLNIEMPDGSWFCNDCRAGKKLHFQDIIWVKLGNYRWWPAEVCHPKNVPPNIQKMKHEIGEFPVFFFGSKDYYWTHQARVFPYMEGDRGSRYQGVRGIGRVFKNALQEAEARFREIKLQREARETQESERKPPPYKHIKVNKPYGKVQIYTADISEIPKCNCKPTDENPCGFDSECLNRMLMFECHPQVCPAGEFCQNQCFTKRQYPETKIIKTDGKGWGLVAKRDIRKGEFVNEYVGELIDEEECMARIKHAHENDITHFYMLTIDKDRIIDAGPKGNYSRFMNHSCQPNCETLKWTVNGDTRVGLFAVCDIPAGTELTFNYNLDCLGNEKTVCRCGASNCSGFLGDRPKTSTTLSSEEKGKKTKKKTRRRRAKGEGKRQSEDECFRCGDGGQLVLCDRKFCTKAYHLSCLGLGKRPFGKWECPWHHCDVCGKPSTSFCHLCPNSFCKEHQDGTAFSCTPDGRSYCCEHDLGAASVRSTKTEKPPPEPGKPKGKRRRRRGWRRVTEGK

[9] = biological target: T7, Calpain-2 catalytic subunit (Sus scrofa, UniProt P43367); test: pig calpain II inhibitor potency, dose response, biochemical, fluorogenic peptide substrate (AID 1420); format: functional
T7 sequence (P43367 whole entry): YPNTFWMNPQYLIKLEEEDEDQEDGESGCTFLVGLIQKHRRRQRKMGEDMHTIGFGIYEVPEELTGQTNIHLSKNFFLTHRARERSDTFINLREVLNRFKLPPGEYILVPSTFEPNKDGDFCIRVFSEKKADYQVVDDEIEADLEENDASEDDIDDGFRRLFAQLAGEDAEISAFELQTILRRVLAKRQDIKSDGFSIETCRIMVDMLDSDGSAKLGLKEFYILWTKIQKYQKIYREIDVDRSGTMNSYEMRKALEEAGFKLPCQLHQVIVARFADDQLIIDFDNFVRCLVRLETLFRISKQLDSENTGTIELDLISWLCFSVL

[10] = biological target: T8, RNA-binding protein pos-1 (Caenorhabditis elegans, UniProt G5EF15); test: inhibitors of POS-1/mex-3 RNA binding, dose response, biochemical, fluorescence polarization (AID 1964);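 further: purified POS-1 fused to maltose binding protein made in E. coli; potency of compounds blocking POS-1 binding to fluorescent RNA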
T8 sequence (G5EF15 whole entry): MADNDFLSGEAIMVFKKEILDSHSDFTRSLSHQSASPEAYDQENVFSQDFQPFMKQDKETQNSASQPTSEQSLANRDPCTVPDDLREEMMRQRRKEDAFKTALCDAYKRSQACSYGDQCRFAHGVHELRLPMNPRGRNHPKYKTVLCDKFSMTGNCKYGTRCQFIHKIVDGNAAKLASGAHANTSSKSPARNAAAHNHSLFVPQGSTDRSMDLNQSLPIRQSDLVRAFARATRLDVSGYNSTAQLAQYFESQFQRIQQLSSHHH

Cysteine protease ATG4B = biological target: T9, Cysteine protease ATG4B (Homo sapiens, UniProt Q9Y4P1); format: functional;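 further: Fluorescence-based dose-response confirmation assay measuring inhibition of ATG4B activity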
T9 sequence (Q9Y4P1 whole entry): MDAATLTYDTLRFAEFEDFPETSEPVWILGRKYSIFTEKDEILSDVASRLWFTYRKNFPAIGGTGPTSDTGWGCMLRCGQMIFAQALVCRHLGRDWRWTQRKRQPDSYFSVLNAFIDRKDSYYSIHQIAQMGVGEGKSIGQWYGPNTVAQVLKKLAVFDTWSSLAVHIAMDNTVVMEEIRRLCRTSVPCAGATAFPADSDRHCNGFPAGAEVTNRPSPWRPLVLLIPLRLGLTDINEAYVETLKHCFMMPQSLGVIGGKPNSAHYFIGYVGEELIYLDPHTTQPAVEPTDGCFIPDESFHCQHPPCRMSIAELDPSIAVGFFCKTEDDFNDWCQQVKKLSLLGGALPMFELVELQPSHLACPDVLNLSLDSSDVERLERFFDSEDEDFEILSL

[11] = biological target: FAD-linked sulfhydryl oxidase ALR (Homo sapiens, UniProt P55789); test: inhibitors of human ALR sulfhydryl oxidase, dose response, biochemical, H2O2 detection, luminescence, cherry-pick (AID 493248)
Chain of FAD-linked sulfhydryl oxidase ALR (P55789 whole entry): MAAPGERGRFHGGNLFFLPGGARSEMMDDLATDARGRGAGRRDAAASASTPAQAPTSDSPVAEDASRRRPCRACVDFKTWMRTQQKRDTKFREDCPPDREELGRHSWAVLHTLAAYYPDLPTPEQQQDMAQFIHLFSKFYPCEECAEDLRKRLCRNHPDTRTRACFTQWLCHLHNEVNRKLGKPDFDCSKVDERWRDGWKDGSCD

Structure (SMILES): COc1cccc2c1C(=O)c1c(O)c3c(c(O)c1C2=O)C[C@@](O)(C(C)=O)C[C@@H]3OC1CC(O)C(O)C(C)O1 (stereo partly specified)
GI50 (P388/ADR): 0.293 µM (active)

Structure (SMILES): O=C(CCN1C(=O)/C(=C/C=C/c2ccccc2)SC1=S)Nc1ccccn1
EC50 (Melanocortin receptor 4): > 89.2 µM (inactive)

Structure (SMILES): Cn1c(=O)[nH]c(=O)c2c1nc(SCCN1CCCCC1)n2CCCc1ccccc1
IC50 [1]: 34.9 µM (inactive)
IC50 [2]: 0.599 µM (active)
IC50 [3]: 0.57 µM (active)
IC50 [4]: > 80 µM (inactive)

Structure (SMILES): CSc1sc(-c2nnc(S)n2C)c2c1C=CCC2
IC50 [6]: 38.2 µM (inactive)

Structure (SMILES): Cc1ccccc1NC1=NC(=O)/C(=C/c2cccn2-c2cccc(C(=O)O)c2)S1
EC50 [7]: 70 µM (active)
IC50 (Phospholipase A2): 8.6 µM (active)
AC50 [8]: > 20 µM (inactive)
IC50 [9]: 1.09 µM (not active)
EC50 [10]: > 300 µM (not active)
IC50 (Cysteine protease ATG4B): 10.2 µM (active)

Other lines, results leading:

EC50 (Melanocortin receptor 4): > 89.2 µM (inactive)
Structure (SMILES): Cc1ccc(C(=O)NCCNc2nc3cc(C)c(C)cc3cc2C)cc1

IC50 [1]: 36.1 µM (inactive)
IC50 [2]: 11.8 µM (active)
IC50 [3]: 3.08 µM (active)
Structure (SMILES): O=C(NCCCn1ccnc1)C(Cc1ccccc1)N1C(=O)c2ccccc2C1=O (stereo unspecified)

IC50 [5]: 14.1 µM (active)
Structure (SMILES): COCCNC(=O)c1cccc2c1C(=O)c1ccc(N3CCOCC3)cc1S2(=O)=O

EC50 (Melanocortin receptor 4): > 89.2 µM (inactive)
Structure (SMILES): COc1ccc2c(c1)CCc1c(C(=O)Nc3ccn(Cc4ccc(C)cc4)n3)noc1-2

IC50 [5]: 37.8 µM (inactive)
AC50 [11]: 0.509 µM (active)
Structure (SMILES): Nc1cc([N+](=O)[O-])ccc1Nc1ccccc1
